Reference: US20250032625A1, “HETEROBIFUNCTIONAL MOLECULES AS TEAD INHIBITORS” (Merck Patent GmbH, priority 2021, published 2025)
Read-outs that look alike come from different tables or passages of the source.

Assays:
[1] = biological target: TEAD1 in SK-HEP1 cells (Homo sapiens (Human), UniProt P28347); experiment: TEAD degradation in SK-HEP1 cell line (immunofluorescence); assay type: cell-based
Summary of the method: (§1)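 SK-HEP1 and NCI-H226 cells were treated in duplicate for 16 or 24 h at 37 °C with compound (10 points, 1:3, top 30 µM final). After fixation, TEAD1 was immunostained with anti-TEF1 and per-cell fluorescence quantified by high-content imaging. DC50 from curve fitting.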

[2] = biological target: TEAD1 in NCI-H226 cells (Homo sapiens (Human), UniProt P28347); experiment: TEAD degradation in NCI-H226 cell line (immunofluorescence); assay type: cell-based
TEAD1 in NCI-H226 cells, sequence (P28347 whole entry): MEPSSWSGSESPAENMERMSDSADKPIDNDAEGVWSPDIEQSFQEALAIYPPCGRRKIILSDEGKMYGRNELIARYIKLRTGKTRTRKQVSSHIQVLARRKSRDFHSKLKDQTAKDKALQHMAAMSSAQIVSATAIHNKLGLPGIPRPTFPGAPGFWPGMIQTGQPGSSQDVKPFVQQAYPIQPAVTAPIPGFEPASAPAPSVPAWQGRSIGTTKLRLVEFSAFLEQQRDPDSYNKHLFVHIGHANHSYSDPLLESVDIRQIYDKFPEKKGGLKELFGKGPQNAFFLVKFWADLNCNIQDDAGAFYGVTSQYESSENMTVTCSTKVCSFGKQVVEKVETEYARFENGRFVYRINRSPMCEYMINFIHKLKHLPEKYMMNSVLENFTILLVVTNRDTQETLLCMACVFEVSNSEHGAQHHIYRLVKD
Summary of the method: as §1

[3] = biological target: T1, hsTEAD1 (209-426) (Homo sapiens (Human), UniProt P28347); experiment: Surface Plasmon Resonance (SPR) assay; assay type: binding; settings: Biacore 4000, 15° C., 1:1 Langmuir model, read-out: KD TEAD1 (209-426)
T1 sequence (P28347 209-426): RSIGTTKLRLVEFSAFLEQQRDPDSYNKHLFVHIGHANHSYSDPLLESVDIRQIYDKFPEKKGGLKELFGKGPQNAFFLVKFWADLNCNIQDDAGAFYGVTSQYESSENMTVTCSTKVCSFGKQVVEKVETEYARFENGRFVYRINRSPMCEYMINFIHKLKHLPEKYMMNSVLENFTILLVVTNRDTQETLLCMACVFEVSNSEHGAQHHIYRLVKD
Procedure: The kinetic and affinity parameters of protein-exemplary compound interactions were evaluated by SPR. hsTEAD1 (209-426) was immobilized onto a CM7 (Series S) sensor chip via the standard amine coupling procedure, at 15° C. Prior to immobilization, the carboxymethylated surface of the chip was activated with 400 mM 1-ethyl-3-(3-dimethylaminopropyl)-carbodiimide and 100 mM N-hydroxysuccinimide for 10 min. hsTEAD1 (209-426) was diluted to 11 μg/mL in 10 mM Bis-Tris at pH 6.5 and immobilized on the activated surface chip for 8 and 10 min, in order to reach 6000 to 9000 response units (RU). The remaining activated carboxymethylated groups were blocked with a 7 min injection of 1 M ethanolamine pH 8.5 after which the surface chip was washed with 0.5% (w/v) sodium dodecyl sulphate and 50 mM glycine. HBS-N, which consists of 10 mM HEPES pH 7.4 and 150 mM NaCl, was used as the background buffer during immobilization. Exemplary compounds were prediluted in DMSO, diluted 1:50 in running buffer (20 mM Tris pH 7.4, 150 mM NaCl, 1 mM DTT, 5 mM MgCl2, 0.1 mM EGTA, 0.05% CHAPS) and injected at ten different concentrations using two-fold dilution series, from 100 μM to 0.2 μM. A DMSO solvent correction (1%-3%) was performed to account for variations in bulk signal and to achieve high-quality data. Interaction analysis cycles consisted of a 240 sec sample injection (30 μL/min; association phase) followed by 600 sec of buffer flow (dissociation phase).
All sensorgrams were processed by first subtracting the binding response recorded from the control surface (reference spot), followed by subtracting of the buffer blank injection from the reaction spot. All datasets were fit to a simple 1:1 Langmuir interaction model to determine the kinetic rate constants, KD. Experiments were performed on a Biacore 4000 (Cytiva, Uppsala, Sweden) at 15° C. and the interactions were evaluated using the provided Biacore 4000 evaluation software.

[4] = biological target: hsTEAD4 (217-424) (Homo sapiens (Human), UniProt Q15561); experiment: Thermal shift measurement / Differential Scanning Fluorimetry (DSF); assay type: binding; settings: 100 uM compound, 2 hours at 4° C., triplicates; read-out: ΔTm TEAD4 217-434
hsTEAD4 (217-424), sequence (Q15561 217-434): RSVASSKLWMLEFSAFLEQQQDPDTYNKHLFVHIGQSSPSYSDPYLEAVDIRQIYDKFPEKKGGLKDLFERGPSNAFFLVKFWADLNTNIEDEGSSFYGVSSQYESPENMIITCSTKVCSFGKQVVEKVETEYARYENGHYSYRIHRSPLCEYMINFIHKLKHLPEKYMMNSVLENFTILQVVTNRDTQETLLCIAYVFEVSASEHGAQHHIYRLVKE
Procedure: (§2) Interaction of exemplary compounds with the various TEAD isoforms TEAD1, TEAD2, TEAD3, and TEAD4 was performed in a DSF assay. YAP-binding domains (YBD) of the four isoforms were subcloned and heterogeneously expressed in E. coli as a host. Initial purification was perfomed by using affinity tags, which got removed by overnight protease treatment. Further purification of TEAD isoforms was performed by Size-Exclusion Chromatography (SEC). Target protein containing fractions were pooled, concentrated with an Amicon (10 KDa MWCO) and quantified using the Bradford assay. Exemplary compound testing in the DSF assay for determining the shift of the TEAD isoform melting temperatures has been performed as described below: DSF was performed in MicroAmpTM EnduraPlateTM Optical 96-Well Clear Reaction Plates (Applied Biosystems, Life Technologies, California, USA) using a QuantStudio 7 Flex Real-Time PCR System (Applied Biosystems). Protein samples were briefly centrifuged before preparation. The final reaction mixture (20 μL of total volume) contained 11.8 μM of […]1 (209-426), 7.3 μM of […]2 (217-447), 7.9 μM of […]3 (216-435) or 11.7 μM of […]4 (217-424), and 2 or 4-fold of Protein Thermal ShiftTM Dye (Applied Biosystems) diluted in protein buffer-20 mM Tris pH 8.0, 150 mM NaCl (+0.5 mM TCEP for TEAD1 experiments). Prior to the addition of the dye, proteins were incubated with either 1 μL DMSO 100% (apo) or 100 uM of each exemplary compound (1 μL at 2 mM in 100% DMSO added to the […] reaction mixture) for 2 hours at 4° C. The melting curve data was recorded from 25 to 90° C. with an increment rate of 0.016° C.s^-1. Excitation and emission filters were applied for Protein Thermal ShiftTM Dye (470 nm and 520 nm, respectively) and for ROX reference dye (580 nm and 623 nm, respectively). The melting temperatures (Tm) were obtained by calculating the midpoint of each transition, using the Protein Thermal Shift SoftwareTM version 1.3. The thermal stability effect of each compound (ΔTm) was calculated by subtracting the calculated Tm in presence and absence (apo) of compound. All samples were tested in triplicates.

[5] = biological target: hsTEAD3 (216-435) (Homo sapiens (Human), UniProt Q99594); experiment: as above; assay type: binding; settings: 100 uM compound, 2 hours at 4° C., triplicates; read-out: ΔTm TEAD3 216-435
hsTEAD3 (216-435), sequence (Q99594 216-435): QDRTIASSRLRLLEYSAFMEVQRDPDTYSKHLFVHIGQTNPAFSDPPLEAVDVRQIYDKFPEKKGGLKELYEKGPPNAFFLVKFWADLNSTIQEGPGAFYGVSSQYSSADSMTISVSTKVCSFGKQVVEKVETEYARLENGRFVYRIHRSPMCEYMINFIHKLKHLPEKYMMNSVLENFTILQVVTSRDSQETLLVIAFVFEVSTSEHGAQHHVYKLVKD
Procedure: as §2

[6] = biological target: T1, hsTEAD1 (209-426); experiment: as above; assay type: binding; settings: 100 uM compound, 2 hours at 4° C., triplicates; read-out: ΔTm TEAD1 (209-426)
Procedure: as §2

[7] = biological target: hsTEAD2 (217-447) (Homo sapiens (Human), UniProt Q15562); experiment: as above; assay type: binding; settings: 100 uM compound, 2 hours at 4° C., triplicates; read-out: ΔTm TEAD2 (217-447)
hsTEAD2 (217-447), sequence (Q15562 217-447): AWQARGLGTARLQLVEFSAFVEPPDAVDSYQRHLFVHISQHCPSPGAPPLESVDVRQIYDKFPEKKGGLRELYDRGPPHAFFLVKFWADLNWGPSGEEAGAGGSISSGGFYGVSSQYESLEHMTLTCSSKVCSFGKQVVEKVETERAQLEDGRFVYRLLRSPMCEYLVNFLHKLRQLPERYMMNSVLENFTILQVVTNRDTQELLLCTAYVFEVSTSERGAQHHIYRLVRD
Procedure: as §2

[8] = biological target: TEAD1 (Homo sapiens (Human), UniProt P28347); experiment: TEAD degradation assay, 6 h time point, cell line not stated; assay type: cell-based; settings: after 6 h, read-out: degradation concentration, DC50, after 6 h
TEAD1, sequence (P28347 whole entry, canonical isoform): as the sequence (P28347 whole entry) above
Procedure: Degradation of TEAD isoform TEAD1 by exemplary compounds which has been determined at different time points in two different cell lines, SK-HEP1 and NCI-H226: For the assay, SK-HEP1 (ATCC HTB-52) and NCI-H226 (ATCC CRL-5826) cells were treated in duplicates with the test compounds in a 10-point dose, 1:3 dilution steps, with the top concentration starting at 30 uM (final concentration in assay). […] The primary antibody used was Anti-TEF1 (BD, 610293) and the secondary antibody used was Alexa Fluor® 488 Goat Anti-Mouse IgG (H+L) (Molecular Probes, A-11001). Finally, the cell nuclei were co-stained by Hoechst 33258 (Invitrogen, H-3569) and imaged using a high content imager. The amount of TEAD degradation was determined by quantifying the fluorescence intensity levels of Anti-TEF1 in each individual cell per well. DC50 was calculated using curve fitting software Genedata Screener. Cell media: The SK-HEP1 cells were cultured in the following media: MEM, +10% FCS, +1× GlutaMAX, +100 μM NEAA, +10 mM HEPES, +0.5% Pen/Strep. The NCI-H226 cells were cultured in the following media: RPMI 1640, +10% FBS, +1× GlutaMAX, +10 mM HEPES, +0.5% Pen/Strep.

[9] = 16 h incubation, read-out: DC50 SK-HEP1 16 h
[10] = 24 h incubation, read-out: DC50 SK-HEP1 24 h
[11] = 24 hours, ranges, read-out: DC50 SK-HEP1
[12] = 16 h incubation, read-out: DC50 NCI-H226 16 h
[13] = 24 h incubation, read-out: DC50 NCI-H226 24 h
[14] = 24 hours, ranges, read-out: DC50 NCI-H226

TEAD1 in SK-HEP1 cells, sequence (P28347 whole entry): as above

| DC50 [1, 9] [nM] | DC50 [1, 10] [nM] | DC50 [1, 11] [nM] | DC50 [2, 12] [nM] | DC50 [2, 13] [nM] | DC50 [2, 14] [nM] | Kd [3] [nM] | ΔTm at 100 µM [4] [°C] | ΔTm at 100 µM [5] [°C] | ΔTm at 100 µM [6] [°C] | ΔTm at 100 µM [7] [°C] | DC50 [8] [nM] | Structure (SMILES) |
| --- | --- | --- | --- | --- | --- | --- | --- | --- | --- | --- | --- | --- |
| 2000 | 2000 | 100 to 1000 | 700 | 900 | 1000 to 3000 | 320 | 0 | 0.6 | 2.9 | 1 | – | Cc1ncsc1-c1ccc(CNC(=O)[C@@H]2C[C@@H](O)CN2C(=O)[C@@H](NC(=O)CCCCCC(=O)NCCOCCOCCNC(=O)c2ccc3c(c2)c2cn(C)nc2n3-c2ccc(C(F)(F)F)cc2)C(C)(C)C)cc1 [Compound 4, N-[(2S)-1-[(2S,4R)-4-hydroxy-2-({[4-(4-methyl-1,3-thiazol-5-yl)phenyl]methyl}carbamoyl)pyrrolidin-1-yl]-3,3-dimethyl-1-oxobutan-2-yl]-N′-(2-{2-[2-({2-methyl-8-[4-(trifluoromethyl)phenyl]-2H,8H-pyrazolo[3,4-b]indol-5-yl}formamido)ethoxy]ethoxy}ethyl) heptanediamide] |
| – | 30000 | – | – | 20000 | 9000 to 30000 | 1900 | 2.8 | 0.9 | 3.9 | -0.1 | – | Cn1cc2c3cc(C(=O)NCCOCCOCCNC(=O)COc4cccc5c4C(=O)N(C4CCC(=O)NC4=O)C5=O)ccc3n(-c3ccc(C(F)(F)F)cc3)c2n1 (centres unmarked) [Compound 5, 2-{[2-(2,6-dioxopiperidin-3-yl)-1,3-dioxo-2,3-dihydro-1H-isoindol-4-yl]oxy}-N-(2-{2-[2-({2-methyl-8-[4-(trifluoromethyl)phenyl]-2H,8H-pyrazolo[3,4-b]indol-5-yl}formamido)ethoxy]ethoxy}ethyl)acetamide] |
| 220 | 280 | 100 to 1000 | 200 | 300 | 100 to 1000 | – | – | – | – | – | 280 | Cc1ncsc1-c1ccc([C@H](C)NC(=O)[C@@H]2C[C@@H](O)CN2C(=O)[C@@H](NC(=O)CCCCCc2cn(CCCCCCCNC(=O)c3ccc4c(c3)c3cn(C)nc3n4-c3ccc(C(F)(F)F)cc3)nn2)C(C)(C)C)cc1 [Compound 29, (2S,4R)-1-[(2S)-3,3-dimethyl-2-(6-{1-[7-({2-methyl-8-[4-(trifluoromethyl)phenyl]-2H,8H-pyrazolo[3,4-b]indol-5-yl}formamido)heptyl]-1H-1,2,3-triazol-4-yl}hexanamido)butanoyl]-4-hydroxy-N-[(1S)-1-[4-(4-methyl-1,3-thiazol-5-yl)phenyl]ethyl]pyrrolidine-2-carboxamide] |
